This is an account of results in article PMC10770970, “Synthesis and cytotoxic activity evaluation of novel imidazopyridine carbohydrazide derivatives” (BMC Chemistry, 2024).

Entries after “also recorded” stand apart in the source; their conditions may differ.

The test system of data set [1] is MCF-7 cells. Briefly: Apoptosis by Hoechst 33,258 staining. Format: cell-based, human. The following applies: 100 µM, 72 h. How it is done:
This also further adds to the potential value of this derivative as an anticancer agent, as it is known that apoptosis evasion is an important hallmark of cancer, and apoptosis induction capacity is an important feature of any successful therapeutic agent.
Fig. 4 Measurement of apoptosis induced by Hoechst 33,258 staining assay. […] The cells were then stained with 2.5 µg/ml Hoechst 33,258 after being fixed with 4% cold paraformaldehyde (PFA) and imaged using a fluorescence microscope (Magnification: 500 X). Apoptotic cells as featured by nuclear shrinkage, fragmentation, condensation, etc., are shown by red arrows
Hoechst 33,258 staining assay was used to determine apoptosis induction in cancer cells. Hoechst 33,258 is a fluorescent dye that binds to minor grooves in DNA and is commonly used to determine the characteristic features of apoptosis including condensation and fragmentation, etc. in the cell’s nuclei. MCF-7 cells were cultured in 6-well plates at a density of 10^5 cells/ml and exposed to 100 µM of compound 7d for 72 h. The growth medium was completely removed at the end of the incubation time and the cells were fixed with 1 ml of 4% cold freshly prepared paraformaldehyde (PFA) and incubated for 20 min. […] In the end, the cells were washed twice with PBS and imaged with a fluorescence microscope (Nikon model DS-Ri2).

Data set [2] relates to HT-29 (Human colorectal adenocarcinoma) cells. Briefly: MTT reduction cytotoxicity assay, HT-29. Format: cell-based. The following applies: Homo sapiens, HT-29, 72 h, ± S.E.M., max tested 100 µM. The protocol: (§1) All synthesized compounds were evaluated for cytotoxic activity against three human cancer cell lines including MCF-7, HT-29, and K562 by employing an MTT (3-(4,5-dimethylthiazol-2-yl)-2,5-diphenyltetrazolium bromide) assay. […] Cisplatin and doxorubicin were tested as standard chemotherapeutic reference agents.
(§2) MCF-7 (human breast adenocarcinoma), HT-29 (Human colorectal adenocarcinoma), K562 (human chronic myelogenous leukemia), and Vero (kidney epithelial cells of African green monkey) cells were obtained from Iranian Biological Resource Center, Tehran, Iran. MCF-7, K562, and Vero cells were cultured in RPMI 1640 medium containing 10% heat-inactivated fetal bovine serum (FBS) and 1% penicillin/streptomycin, while HT-29 cells were grown in DMEM low glucose, containing 20% heat-inactivated FBS and 1% penicillin/streptomycin. All cells were grown in monolayer culture at 37 °C in a humidified incubator with 5% CO2.
(§3) Assessment of cell viability after exposure of cancer and non-cancer cells to synthetic compounds was performed using the MTT (3-(4,5-dimethylthiazol-2-yl)-2,5-diphenyltetrazolium bromide) reduction assay. Cells were plated in 96-well microplates at densities of 30,000 cells/mL (100 μL in each well). The plates were incubated overnight at 37 °C and then 50 μL of the growth medium was replaced with the same amount of fresh medium containing 3–4 different concentrations of synthesized analogs at the final concentrations of 10–100 µM. Test compounds were initially dissolved in DMSO and then diluted in the growth medium. The upper limit of DMSO concentration in each well was 0.5%. After 72 h of incubation, 80 μL of the solution in each well was substituted with the same quantity of the growth medium comprising of MTT solution at 0.5 mg/mL. Cells were subsequently incubated at 37 °C for 4 h and then 80 μL of the solution in each well was removed. The introduction of DMSO (200 μL) to each well caused the formazan crystals formed inside the viable cells to dissolve. The process lasted 1.5 h (1 h of incubation and 30 min of shaking). The optical absorbance of the final solution was quantified at the wavelength of 570 nm using a microplate reader. IC50 values for all derivatives were calculated using CurveExpert 1.34 software.

The test system of data set [3] is MCF-7 (human breast adenocarcinoma) cells. Briefly: MTT reduction cytotoxicity assay, MCF-7. Format: cell-based. Particulars: Homo sapiens, MCF7, 72 h, ± S.E.M., max tested 100 µM. How it is done:
as §1, §2, §3
In general terms: Tetrazolium dyes change colour on reduction, which living cells bring about.

Data set [4] relates to K562 (human chronic myelogenous leukemia) cells. Briefly: MTT reduction cytotoxicity assay, K562. Format: cell-based. Particulars: Homo sapiens, K562, 72 h, ± S.E.M., max tested 100 µM. How it is done: as §1, §2, §3
For data set [5], the system named is Vero (kidney epithelial cells of African green monkey) cells. Briefly: MTT reduction cytotoxicity assay, Vero non-cancer cells. The format is cell-based. Particulars: 72 h, ± S.E.M., max tested 100 µM. The protocol:
as §1, §2, §3

Data set [6] concerns MCF-7 cells. Briefly: Cell cycle analysis by RNase/propidium iodide flow cytometry. Format: cell-based, human. Particulars: 48 h; for Percent of MCF-7 cells in Sub G1: control 0.8 ± 0.3; for Percent of MCF-7 cells in S: control 11.7 ± 2.3; for Percent of MCF-7 cells in G2/M: control 26.1 ± 2.9; for Percent of MCF-7 cells in G0/G1: control 61.4 ± 1.4. How it is done: Fig. 3 Effect of compound 7d on cell cycle phase distribution of MCF-7 cells. The analysis of cells in different phases of the cell cycle was performed using propidium iodide (PI)-based assessment of cell cycle by flow cytometry. […] The cells were then collected, washed with PBS and fixed with 70% ethanol overnight at −20 °C. After 24 h, the fixed cells were incubated in a PI-RNase solution at room temperature and 10,000 cells were analyzed using a FACS Calibur flow cytometer (BD Biosciences)
The analysis of cells in different phases of the cell cycle and the sub-G1 phase were monitored using RNase/propidium iodide (PI)-based assessment of the cell cycle by flow cytometry. […] At the end of the incubation, the culture media in each well were collected and the cells were washed with PBS. Then, they were fixed with 70% ethanol overnight at −20 °C. After 24 h, the fixed cells were washed with PBS and subsequently stained with DNA staining solution (PI 20 μg/mL and RNase 200 μg/mL) at room temperature for 30 min in the dark. Ten thousand cells of each sample were analyzed using a FACS Calibur flow cytometer (BD Biosciences) and the percentage of the cells in sub-G1, G0/G1, S, and G2/M phases were calculated using CellQuest (BD, USA) software.
A general note: Flow cytometry measures light scatter and fluorescence of single cells or particles in a stream.

As a reminder, the IC50 is the concentration that inhibits the measured activity by half. A high value points to weaker potency in that assay. As a reminder, the melting point is the temperature, or range, at which the solid turns liquid. In turn, `O=C(NN=Cc1ccc(Br)cc1)c1cn2ccccc2n1` [Compound 7d, N´-(4-bromobenzylidene)imidazo[1,2-a]pyridine-2-carbohydrazide] had a melting point of 230 to 232 °C. In the data set with MCF-7 cells [1], the “Apoptosis induction (in words)” value was “induce apoptosis; also recorded: clear signs of apoptosis including nuclear condensation and fragmentation”. The IC50 in data set [2] was 13.4 ± 1.3 µM. In data set [3], the IC50 turned out to be 22.6 ± 1 µM. Further, the IC50 in data set [4] is over 100 µM. The “IC50 Vero” value in data set [5] was “completely inactive; also recorded: no toxic effect”. Moreover, the IC50 in data set [5] (Chlorocebus sabaeus, Vero) is over 100 µM. Also, in the data set with MCF-7 cells [6] (7d 20 µM), the “Percent of MCF-7 cells in Sub G1” value is 0.8 ± 0.6%, the “Percent of MCF-7 cells in S” value was 11.9 ± 5.7%, the “Percent of MCF-7 cells in G2/M” value is recorded as 23.3 ± 10.0% and the “Percent of MCF-7 cells in G0/G1” value was 64.2 ± 7.6%. In the data set on MCF-7 cells [6] (7d 50 µM), the “Percent of MCF-7 cells in Sub G1” value is recorded as 0.8 ± 0.6%, the “Percent of MCF-7 cells in S” value was 11.1 ± 4.9%, the “Percent of MCF-7 cells in G2/M” value is given as 21.1 ± 8.8% and the “Percent of MCF-7 cells in G0/G1” value was found to be 67.0 ± 8.4%. Moreover, in the data set with MCF-7 cells [6] (7d 100 µM), the “Percent of MCF-7 cells in Sub G1” value is given as 1.1 ± 0.9%, the “Percent of MCF-7 cells in S” value is 10.2 ± 5.3%, the “Percent of MCF-7 cells in G2/M” value was determined as 21.5 ± 7.2% and the “Percent of MCF-7 cells in G0/G1” value was found to be 67.2 ± 7.5%. Also, the “Effect on cell cycle phase distribution (in words)” value in the data set on MCF-7 cells [6] (MCF-7 cells) is “dose-dependent increase in the G0/G1 phase and a concomitant decrease in the G2/M phase; also recorded: increased the number of MCF-7 cells in the G0/G1 phase; also recorded: increase the number of cancer cells in the G0/G1 phase”.
